Active and inactive are the calls of the source. The rule behind the calls is not given here.
Tested on: CCRIS mutagenicity, Ames/micronucleus/aberration tests
Test: CCRIS mutagenicity studies

O=c1c(O)c(-c2ccc(O)c(O)c2)oc2cc(O)cc(O)c12
mutagenic call (End Point: IN VIVO MICRONUCLEUS, Test System: BONE MARROW POLYCHROMATIC ERYTHROCYTES, Species: MOUSE, Strain/Sex: DDY/MALE, Route: IP): inactive; negative
mutagenic call (End Point: In vivo micronucleus, Test System: Bone marrow polychromatic erythrocytes, Species: Rat, Strain/Sex: Wistar/Male, Route: Oral (gavage)): inactive; negative
mutagenic call (Test System: AMES SALMONELLA TYPHIMURIUM, Strain/Indicator: TA97, Metabolic Activation: NONE, Method: STANDARD PLATE): active; positive
mutagenic call (Test System: AMES SALMONELLA TYPHIMURIUM, Strain/Indicator: TA97A, Metabolic Activation: NONE, Method: STANDARD PLATE): active; positive
mutagenic call (Test System: AMES SALMONELLA TYPHIMURIUM, Strain/Indicator: TA97A, Metabolic Activation: RAT, LIVER, S9, AROCLOR 1254, Method: STANDARD PLATE): active; positive
mutagenic call (Test System: AMES SALMONELLA TYPHIMURIUM, Strain/Indicator: TA98, Metabolic Activation: HAMSTER, LIVER, S9, AROCLOR 1254 (30%), Method: PREINCUBATION): active; positive
mutagenic call (Test System: AMES SALMONELLA TYPHIMURIUM, Strain/Indicator: TA98, Metabolic Activation: NONE, Method: FLUCTUATION (MICROTITER)): active; positive
mutagenic call (Test System: AMES SALMONELLA TYPHIMURIUM, Strain/Indicator: TA98, Metabolic Activation: NONE, Method: PREINCUBATION): active; positive
mutagenic call (Test System: AMES SALMONELLA TYPHIMURIUM, Strain/Indicator: TA98, Metabolic Activation: NONE, Method: STANDARD PLATE): active; positive
mutagenic call (Test System: AMES SALMONELLA TYPHIMURIUM, Strain/Indicator: TA98, Metabolic Activation: RAT, LIVER, CYTOSOL, Method: PREINCUBATION): active; positive
mutagenic call (Test System: AMES SALMONELLA TYPHIMURIUM, Strain/Indicator: TA98, Metabolic Activation: RAT, LIVER, S9, 5,6-BENZOFLAVONE AND/OR SODIUM PHENOBARBITAL, Method: PREINCUBATION): active; positive
mutagenic call (Test System: AMES SALMONELLA TYPHIMURIUM, Strain/Indicator: TA98, Metabolic Activation: RAT, LIVER, S9, AROCLOR 1254 (30%), Method: PREINCUBATION): active; positive
mutagenic call (Test System: AMES SALMONELLA TYPHIMURIUM, Strain/Indicator: TA98, Metabolic Activation: RAT, LIVER, S-9, PHENOBARBITAL, Method: STANDARD PLATE): active; positive
mutagenic call (Test System: AMES SALMONELLA TYPHIMURIUM, Strain/Indicator: TA98, Metabolic Activation: S9, GLUCOSE-6-PHOSPHATE AND NADP, Method: STANDARD PLATE): active; positive
mutagenic call (Test System: AMES SALMONELLA TYPHIMURIUM, Strain/Indicator: TA98, Metabolic Activation: S9, Method: STANDARD PLATE): active; positive
mutagenic call (Test System: AMES SALMONELLA TYPHIMURIUM, Strain/Indicator: TA98, Metabolic Activation: S-100, GLUCOSE-6-PHOSPHATE AND NADP, Method: STANDARD PLATE): active; positive
mutagenic call (Test System: AMES SALMONELLA TYPHIMURIUM, Strain/Indicator: TA98, Metabolic Activation: S-100, Method: STANDARD PLATE): active; positive
mutagenic call (Test System: AMES SALMONELLA TYPHIMURIUM, Strain/Indicator: TA100, Metabolic Activation: HAMSTER, LIVER, S9, AROCLOR 1254 (30%), Method: PREINCUBATION): active; positive
mutagenic call (Test System: AMES SALMONELLA TYPHIMURIUM, Strain/Indicator: TA100, Metabolic Activation: NONE, Method: PREINCUBATION): active; positive
mutagenic call (Test System: AMES SALMONELLA TYPHIMURIUM, Strain/Indicator: TA100, Metabolic Activation: NONE, Method: STANDARD PLATE): active; positive
mutagenic call (Test System: AMES SALMONELLA TYPHIMURIUM, Strain/Indicator: TA100, Metabolic Activation: RAT, LIVER, S9, AROCLOR 1254 (30%), Method: PREINCUBATION): active; positive
mutagenic call (Test System: AMES SALMONELLA TYPHIMURIUM, Strain/Indicator: TA100, Metabolic Activation: RAT, LIVER, S-9, PHENOBARBITAL, Method: STANDARD PLATE): active; positive
mutagenic call (Test System: AMES SALMONELLA TYPHIMURIUM, Strain/Indicator: TA102, Metabolic Activation: RAT, LIVER, S9, AROCLOR 1254, Method: STANDARD PLATE): active; positive
mutagenic call (Test System: AMES SALMONELLA TYPHIMURIUM, Strain/Indicator: TA1535, Metabolic Activation: NONE, Method: STANDARD PLATE): inactive; negative
mutagenic call (Test System: AMES SALMONELLA TYPHIMURIUM, Strain/Indicator: TA1537, Metabolic Activation: NONE, Method: FLUCTUATION (MICROTITER)): active; positive
mutagenic call (Test System: AMES SALMONELLA TYPHIMURIUM, Strain/Indicator: TA1538, Metabolic Activation: NONE, Method: STANDARD PLATE): active; positive
mutagenic call (Test System: AMES SALMONELLA TYPHIMURIUM, Strain/Indicator: TA7001, Metabolic Activation: NONE, Method: FLUCTUATION (MICROTITER)): inactive; negative
mutagenic call (Test System: AMES SALMONELLA TYPHIMURIUM, Strain/Indicator: TA7002, Metabolic Activation: NONE, Method: FLUCTUATION (MICROTITER)): active; positive
mutagenic call (Test System: AMES SALMONELLA TYPHIMURIUM, Strain/Indicator: TA7003, Metabolic Activation: NONE, Method: FLUCTUATION (MICROTITER)): inactive; negative
mutagenic call (Test System: AMES SALMONELLA TYPHIMURIUM, Strain/Indicator: TA7004, Metabolic Activation: NONE, Method: FLUCTUATION (MICROTITER)): active; positive
mutagenic call (Test System: AMES SALMONELLA TYPHIMURIUM, Strain/Indicator: TA7005, Metabolic Activation: NONE, Method: FLUCTUATION (MICROTITER)): active; positive
mutagenic call (Test System: AMES SALMONELLA TYPHIMURIUM, Strain/Indicator: TA7006, Metabolic Activation: NONE, Method: FLUCTUATION (MICROTITER)): inactive; negative
mutagenic call (Test System: Ames Salmonella typhimurium, Strain/Indicator: TA98, Metabolic Activation: None, Method: Standard plate): active; positive
mutagenic call (Test System: Ames Salmonella typhimurium, Strain/Indicator: TA98, Metabolic Activation: Rat, Liver, S9, Aroclor 1254, Method: Standard plate): active; positive
mutagenic call (Test System: Ames Salmonella typhimurium, Strain/Indicator: TA100, Metabolic Activation: None, Method: Standard plate): active; positive
mutagenic call (Test System: Ames Salmonella typhimurium, Strain/Indicator: TA100, Metabolic Activation: Rat, Liver, S9, Aroclor 1254, Method: Standard plate): active; positive
mutagenic call (Test System: Ames Salmonella typhimurium, Strain/Indicator: TA102, Metabolic Activation: Fe ++ (1 uM) with NADPH generating system, Method: Preincubation): active; positive
mutagenic call (Test System: Ames Salmonella typhimurium, Strain/Indicator: TA102, Metabolic Activation: None, Method: Preincubation): active; positive
mutagenic call (Test System: Ames Salmonella typhimurium, Strain/Indicator: TA102, Metabolic Activation: Rat, Liver, S9, Aroclor 1254, Method: Preincubation): active; positive
mutagenic call (Test System: Ames Salmonella typhimurium, Strain/Indicator: TA102, Metabolic Activation: Rat, Liver, S-9, Aroclor 1254 in 0.154 M KCl, Method: Preincubation): active; positive
mutagenic call (Test System: E. coli, Strain/Indicator: WP2 uvrA, Metabolic Activation: Fe ++ (1 uM) with NADPH generating system, Method: Preincubation): active; positive
mutagenic call (Test System: E. coli, Strain/Indicator: WP2 uvrA, Metabolic Activation: None, Method: Preincubation): active; positive
mutagenic call (Test System: E. coli, Strain/Indicator: WP2 uvrA, Metabolic Activation: Rat, Liver, S9, Aroclor 1254, Method: Preincubation): active; positive
mutagenic call (Test System: UDS RAT GASTRIC MUCOSAL CELLS, Strain/Indicator: THY INCORP, Metabolic Activation: NONE, Method: LIQUID SCINTILLATION COUNTING): inactive; negative
mutagenic call (Test System: UDS Rat hepatocytes, Strain/Indicator: Wistar (Male and female), Method: Autoradiography): inactive; negative

Source: PubChem BioAssay AID1259407 (Chemical Carcinogenesis Research Information System (CCRIS), 2018)
